Laboratory results reported in PMC6429710, “Structure–activity relationships in a series of antiplasmodial thieno[2,3-b]pyridines” (Malaria Journal, 2019).
≈ marks a conversion by molar mass, not a printed value. Where two headings read alike, the source gives them in different places.

Columns and labels:
[1] = test system: asexual erythrocytic stages of transgenic NF54-luc P. falciparum; assay: Luciferase-based viability screening for antiplasmodial activity; assay type: cell-based, Plasmodium falciparum; conditions: for % inhibition ± SD, PfNF54-Luc at 3 µM: 3 µM test compound, luciferase readout; for IC50: read-out: IC50 [µM], PfNF54-Luc
Method: For the luciferase-based viability assays, asexual erythrocytic stages of transgenic NF54-luc P. falciparum were used. These parasites constitutively express high luciferase levels. The parasites were cultured as described previously. Parasite cultures with parasitaemia of 0.5–1% were dispensed in triplicate into white 96-well flat-bottom plates (each well contains 250 µL) (NUNC, Roskilde, Denmark) and incubated in the presence of 3 µM test compounds for 48 h (37 °C, 90% N2, 5% CO2, and 5% O2). 0.01% DMSO was included in the untreated infected RBC cultures as negative control, since the compounds stock initially was diluted in DMSO and each treatment well also contained 0.01% DMSO. Subsequently, 100 µL RPMI1640 media was removed from each well and a 100 µL volume of the Bright-Glo® substrate solution was added to each well. The resultant cleavage product of the reaction, light, was measured using a […] luminometer (Thermo), to ascertain viable parasites. Untreated cultures were used as negative controls and to calculate the inhibition rate (0% inhibition of parasite growth). Experiments were performed in triplicate and were repeated as a whole at least twice. Blasticidin (Sigma-Aldrich, St. Louis, MO, USA), used for selection of transfected parasites, was included as a positive control on each plate and gave > 90% inhibition of parasite growth at concentration 2 µg/mL. […] For active compounds IC50 values were determined from dose–response curves. Calculation of parasite growth inhibition, of the IC50 values and statistical analysis were carried out using GraphPad Prism Version 6.0b (GraphPad Software, Inc. San Diego, CA).

PfGSK-3 = target: T1, PfGSK-3 (Plasmodium falciparum, UniProt O77344); assay: biochemical; assay type: biochemical; conditions: for IC50: 6 µM ATP, mean of three determinations, range in brackets, read-out: IC50 [µM], PfGSK-3 (Kinase Glo Plus)
T1 construct: 6xHis; made in house; host or cells: Escherichia coli C41
T1 sequence (O77344 1-440): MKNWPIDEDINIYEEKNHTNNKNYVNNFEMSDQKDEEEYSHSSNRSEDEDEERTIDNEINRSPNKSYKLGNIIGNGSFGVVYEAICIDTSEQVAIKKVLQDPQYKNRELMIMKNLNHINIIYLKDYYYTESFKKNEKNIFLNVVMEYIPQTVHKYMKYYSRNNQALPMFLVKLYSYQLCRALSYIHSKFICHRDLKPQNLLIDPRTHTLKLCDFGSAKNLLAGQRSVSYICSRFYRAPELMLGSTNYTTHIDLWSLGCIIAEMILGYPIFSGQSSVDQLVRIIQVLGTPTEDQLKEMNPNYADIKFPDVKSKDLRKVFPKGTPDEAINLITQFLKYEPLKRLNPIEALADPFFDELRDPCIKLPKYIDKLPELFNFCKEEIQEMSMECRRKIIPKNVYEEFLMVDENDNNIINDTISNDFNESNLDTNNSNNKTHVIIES
Method: PfGSK-3 was cloned into pOPIN F expression vector [41] using ligation independent cloning (InFusion, Takara Clontech). Expression vector was transformed into Escherichia coli C41 and expression of recombinant PfGSK3-6xHis was induced by incubation with 1 mM IPTG at 16 °C overnight.
Kinase activity was measured using Kinase-Glo Plus Luminescent Kinase Assay (Promega). 20 ng recombinant GSK-3 were incubated for 30 min at 30 °C in the presence of 12 μM GS-1 peptide substrate ([…]pSEDEEE, pS stands for phosphorylated serine, Biaffin GmbH & Co KG/proteinkinase.de) and 6 μM ATP (ultra pure, Promega) in a total volume of 5 μL kinase reaction buffer (40 mM Tris/HCl pH 7.5; 20 mM MgCl2; 0.1 mg/mL BSA). Kinase reaction mix was transferred to a solid white 384 well plate (NUNC, Thermo Scientific) and kinase reaction was stopped by adding 5 μL RT Kinase-Glo reagent. After 10 min luminescence was measured in an EnVision multilabel plate reader (Perkin Elmer, integration time 0.5 s/well). […] All samples were normalized to a negative control (reaction without kinase). Data points were plotted into Graphpad Prism, normalized to a DMSO control and IC50 values were calculated using nonlinear regression.

HsGSK-3 = HsGSK-3 (Homo sapiens, UniProt P49841); assay: Kinase-Glo Plus assay for inhibition of HsGSK-3; assay type: biochemical; conditions: 6 µM ATP; mean of three determinations, range in brackets
Method: Kinase reaction mix was transferred to a solid white 384 well plate (NUNC, Thermo Scientific) and kinase reaction was stopped by adding 5 μL RT Kinase-Glo reagent. After 10 min luminescence was measured in an EnVision multilabel plate reader (Perkin Elmer, integration time 0.5 s/well). […] All samples were normalized to a negative control (reaction without kinase). Data points were plotted into Graphpad Prism, normalized to a DMSO control and IC50 values were calculated using nonlinear regression.

[2] = test system: asexual erythrocytic stages of transgenic NF54-luc P. falciparum; set-up: method as in PMID 23214499; conditions: prototype compound 1; read-out: IC50 [µM], PfNF54-Luc; cited from earlier work
[3] = Kinetic solubility by laser nephelometry; assay type: physicochemical; conditions: kinetic from dmso stock, aqueous phosphate buffer pH 7.4, 1% DMSO, 25 °C, mean ± standard deviation, read-out: S0 pH 7.4, exp (kinetic solubility)
Method: Kinetic solubility indicates the solubility of the most rapidly precipitating form. Kinetic solubilities of 1 and 4h were determined by laser nephelometry using the […] nephelometer (BMG LabTech, Ortenberg, Germany) and F-bottom transparent 96-well plates. The instrument uses red laser light (635 nm, 80% intensity), which passes through the 96-well plate and which is scattered by turbid suspensions. Each compound was measured six times at 25 °C by preparing three independent stock solutions in concentrations of 5 to 10 mM in DMSO. From each stock solution two independent dilution series were prepared. Based on preliminary experiments, dilution concentrations were chosen such that at least five to six concentrations below and above the expected point of precipitation were recorded. To the 96-well plate containing 198 μL aqueous phosphate buffer at pH 7.4, 2 μL of each dilution sample in DMSO was added and shaken for 10 s. at 700 rpm (double orbital). […] The pH was adjusted by adding sulfuric acid. First, the plates were scanned without content to quantify the background, which was later subtracted from the obtained values of each individual well. As blank, 2 μL of neat DMSO was added to the phosphate buffer. Close to the point of precipitation, particle concentration can be assumed to be proportional to the intensity of scattered light. […]

HEK293T cells = assay: Cytotoxicity assay on HEK293 cells (PrestoBlue viability); assay type: cell-based, human
Method: HEK293T cells were seeded into a solid black flat bottom 96 well plate (2.5 × 10^4 cells/well) in 200 μL Dulbecco Modified Eagle Medium (DMEM) supplemented with 10% fetal bovine serum and 1% Pen/Strep (final concentration of 100 U/mL Penicillin and 100 μg/mL Streptomycin). Cells were incubated at 37 °C under 5% CO2. After 18 h the supernatant was removed and fresh DMEM containing serial dilutions of compounds was added. Compounds were solubilized in DMSO (final DMSO concentration in HEK293T culture was 0.5%.) Wells containing 0.5% DMSO served as a negative control. Plates were incubated for further 48 h at 37 °C under 5% CO2. To monitor cell viability the supernatant was removed and cells were incubated with 200 μL 10% PrestoBlue (Invitrogen) in PBS at 37 °C. After 30 min fluorescence (λex = 560 nm, λem = 590 nm) was measured in an EnVision multilable plate reader (Perkin Elmer, integration time 0.1 s/well). Data points were plotted into Graphpad Prism, normalized to the DMSO control and IC50 values were calculated using nonlinear regression.

[4] = from dose-response curves, 48 h

Chain of HsGSK-3 (P49841 whole entry): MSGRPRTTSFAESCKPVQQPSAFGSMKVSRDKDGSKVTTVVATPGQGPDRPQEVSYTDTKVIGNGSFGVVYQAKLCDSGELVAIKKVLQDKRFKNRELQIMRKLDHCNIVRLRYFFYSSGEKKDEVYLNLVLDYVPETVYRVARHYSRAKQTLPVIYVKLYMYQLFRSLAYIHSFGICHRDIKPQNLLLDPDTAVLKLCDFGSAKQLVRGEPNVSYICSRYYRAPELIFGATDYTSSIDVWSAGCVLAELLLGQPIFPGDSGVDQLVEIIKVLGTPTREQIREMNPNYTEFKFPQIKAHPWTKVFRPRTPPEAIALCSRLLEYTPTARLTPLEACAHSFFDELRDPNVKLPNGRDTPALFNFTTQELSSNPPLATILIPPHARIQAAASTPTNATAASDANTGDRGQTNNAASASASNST

Structure (SMILES)	% inhibition ± SD, PfNF54-Luc at 3 µM ([1]; 48 h)	IC50 [1, 4]	also measured
N#Cc1c(N)nc2sc(C(=O)c3cccc(Cl)c3)c(N)c2c1-c1ccc(N2CCCCC2)cc1Cl [4d]	39.1 ± 1.1%	5 µM	–
CN(CC[C@H](N)CC(=O)N[C@H]1C=C[C@H](n2ccc(N)nc2=O)O[C@@H]1C(=O)O)C(=N)N [BS, Blasticidin, reference compound]	99.3 ± 0.7%	–	inhibition of parasite growth (positive control) ([1]; 2 µg/mL, 48 h): > 90%
N#Cc1c(N)nc2sc(C(=O)c3cccc(Cl)c3)c(N)c2c1-c1ccc(OCC(=O)O)cc1Cl [3g]	31.3 ± 1.1%	–	–
N#Cc1c(N)nc2sc(C(=O)c3cccc(Cl)c3)c(N)c2c1-c1ccc(N2CCCC2)cc1Cl [4c]	33.0 ± 2.4%	–	–
N#Cc1c(N)nc2sc(C(=O)c3cccc(Cl)c3)c(N)c2c1-c1ccc(N2CCOCC2)cc1Cl [4e]	20.2 ± 4.8%	–	–
Cl.N#Cc1c(N)nc2sc(C(=O)c3cccc(Cl)c3)c(N)c2c1-c1ccc(N2CCNCC2)cc1Cl [4j]	75.7 ± 1.5%	1.5 µM	–
CCN(CC)c1ccc(-c2c(C#N)c(N)nc3sc(C(=O)c4cccc(Cl)c4)c(N)c23)c(Cl)c1 [(−)4b]	–	–	IC50 (PfGSK-3): > 100 µM
CCN(CC)c1ccc(-c2c(C#N)c(N)nc3sc(C(=O)c4cccc(Cl)c4)c(N)c23)c(Cl)c1 [(+)4b]	–	–	inhibition at 3 µM ([1]; Plasmodium falciparum, NF54, 48 h, read-out: % inhibition ± SD, PfNF54-Luc at 3 µM): 73 ± 1.2%; IC50 ([1]; Plasmodium falciparum, NF54, 48 h): 1.1 µM; IC50 (PfGSK-3): 39.6 µM; IC50 (HsGSK-3): > 100 µM
N#Cc1c(N)nc2sc(C(=O)c3cccc(Cl)c3)c(N)c2c1-c1ccccc1Cl [compound 1]	–	–	IC50 [2]: 5.5 µM; solubility kinetic at 10 s [3]: 1.5 ± 0.3 µM (≈ 0.659 µg/mL); SI (selectivity index) = IC50 HEK293T/IC50 PfNF54-Luc (HEK293T cells; HEK293T versus PfNF54-Luc): 6.4; IC50 (HEK293T cells; Homo sapiens, HEK-293T, cell viability, 48 h, mean of six determinations, range in brackets): 35.2 µM; IC50 (PfGSK-3): 0.24 µM; selectivity index plasmodial versus human GSK-3 (PfGSK-3; Kinase Glo Plus assay, PfGSK-3 versus HsGSK-3): 38; IC50 (HsGSK-3): 9.08 µM
CN(CCNC(=O)OC(C)(C)C)c1ccc(-c2c(C#N)c(N)nc3sc(C(=O)c4cccc(Cl)c4)c(N)c23)c(Cl)c1 [4f]	67.1 ± 2.7%	2.5 µM	–
N#Cc1c(N)nc2sc(C(=O)c3cccc(Cl)c3)c(N)c2c1-c1ccc(OCCO)cc1Cl [3d]	25.6 ± 3.3%	20 µM	–
Cc1ccc(-c2c(C#N)c(N)nc3sc(C(=O)c4cccc(Cl)c4)c(N)c23)c(Cl)c1 [2d]	12.4 ± 2.4%	–	–
CC(C)(C)OC(=O)N1CCN(c2ccc(-c3c(C#N)c(N)nc4sc(C(=O)c5cccc(Cl)c5)c(N)c34)c(Cl)c2)CC1 [4g]	42.1 ± 2.9%	3.8 µM	–
N#Cc1c(N)nc2sc(C(=O)c3cccc(Cl)c3)c(N)c2c1-c1ccc(F)cc1Cl [2b]	28.1 ± 3.3%	6.1 µM	–
N#Cc1c(N)nc2sc(C(=O)c3cccc(Cl)c3)c(N)c2c1-c1ccc(Cl)cc1Cl [2a]	25.7 ± 3.5%	6.2 µM	–
CN(C)c1ccc(-c2c(C#N)c(N)nc3sc(C(=O)c4cccc(Cl)c4)c(N)c23)c(Cl)c1 [4a]	29.9 ± 5.6%	5.7 µM	–
N#Cc1c(N)nc2sc(C(=O)c3cccc(Cl)c3)c(N)c2c1-c1ccc(OCc2ccccc2)cc1Cl [3c]	12.8 ± 4.9%	–	–
N#Cc1c(N)nc2sc(C(=O)c3cccc(Cl)c3)c(N)c2c1-c1ccc(OCC(O)CO)cc1Cl (centres unmarked) [3f]	14.7 ± 1.8%	–	–
CCOc1ccc(-c2c(C#N)c(N)nc3sc(C(=O)c4cccc(Cl)c4)c(N)c23)c(Cl)c1 [3b]	14.5 ± 1.3%	–	–
N#Cc1c(N)nc2sc(C(=O)c3cccc(Cl)c3)c(N)c2c1-c1ccc(O)cc1Cl [2e]	0.2 ± 2.5%	–	–
CN(CCN)c1ccc(-c2c(C#N)c(N)nc3sc(C(=O)c4cccc(Cl)c4)c(N)c23)c(Cl)c1.Cl [4i]	8.1 ± 3.3%	–	–
COc1ccc(-c2c(C#N)c(N)nc3sc(C(=O)c4cccc(Cl)c4)c(N)c23)c(Cl)c1 [3a]	33.2 ± 3.2%	12.2 µM	–
